Test results published in PMC8151276, “An Integrated Approach toward NanoBRET Tracers for Analysis of GPCR Ligand Engagement” (Molecules, 2021).
Each block holds one compound with its values, some of them ahead of it.

Columns and labels:
Format in all cases: binding
VIPR2 = target: T1, VIPR2 (Homo sapiens, UniProt P41587); assay: NanoBRET screen HiBiT-VIPR2 in HEK293
T1 construct: purchased Promega (in-house HiBiT-GPCR construct library, NanoBRET)
T1 sequence (P41587 24-438): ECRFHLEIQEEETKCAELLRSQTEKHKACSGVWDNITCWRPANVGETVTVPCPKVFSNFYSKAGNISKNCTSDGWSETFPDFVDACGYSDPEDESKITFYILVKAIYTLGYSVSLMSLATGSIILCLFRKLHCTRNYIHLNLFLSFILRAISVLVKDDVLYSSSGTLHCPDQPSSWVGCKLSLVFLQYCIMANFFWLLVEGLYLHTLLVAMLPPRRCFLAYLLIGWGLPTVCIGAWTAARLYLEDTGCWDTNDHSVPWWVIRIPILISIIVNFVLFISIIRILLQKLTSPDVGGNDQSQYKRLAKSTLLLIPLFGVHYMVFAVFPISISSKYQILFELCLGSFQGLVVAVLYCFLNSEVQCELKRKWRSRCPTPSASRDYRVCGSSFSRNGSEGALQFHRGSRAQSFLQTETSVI
Protocol: (§1) Each tracer candidate was screened across the entire library of HiBiT-GPCR constructs using NanoBRET as the detection modality. As depicted in Figure 4A, the specificity of interactions was evaluated through decrease in BRET due to competitive displacement of a bound tracer by excess parental compound. Each tracer was analyzed for binding to each HiBiT-GPCR fusion in the absence and in the presence of competing parental compound. Briefly, HEK293 cells were transfected with HiBiT-GPCR constructs diluted into promoterless DNA to reduce expression and maximize translocation to the cell surface. Each tracer candidate was then screened at concentrations of 1 μM and 0.1 μM across cells expressing these fusions. Cells were treated for 1.5 h with tracer either alone or in the presence of 20 μM competing parental compound (i.e., control). BRET was measured upon addition of purified LgBiT and subsequent complementation with HiBiT genetically fused to a GPCR. The specificity of interactions was assessed through a decrease in BRET signal due to competitive displacement of the bound tracer. To further gauge the robustness of these interactions, the fold response over the control (i.e., BRETtracer/BRETcontrol) was calculated. We chose a 1.5-fold response, which translates to ≥7-fold signal over noise as the minimal threshold required to score an interaction as positive. […]. Below we highlight the screening results obtained for our exemplary fluorescent tracers based on Clozapine, Amitriptyline and AZD1283.
(§2) HiBiT-GPCR DNA constructs were diluted in 10 mM Tris pH 8 to a final concentration of 0.01 μg/μL, arrayed in 96-well plates and stored at −20 °C. For transfection, HEK293 cells were suspended in Opti-MEM (without phenol red) supplemented with 2% fetal bovine serum (Seradigm) and 100 units/mL penicillin–streptomycin (Gibco) at a final concentration of 220,000 cells/mL and dispensed into white 96-well plates at 90 μL/well. Subsequent transfections and screens were carried using an Agilent Bravo Automated Liquid Handling Platform. First, the 96-well HiBiT DNA arrays were diluted 25-fold in Opti-MEM (without serum or phenol red) to a final concentration of 0.0004 μg/μL and 20 μL of the diluted DNAs were transferred into new 96-well plates. Next, promoterless carrier DNA (1 μg/μL) was diluted 25-fold (0.04 μg/μL) and then dispensed into the diluted arrays at 20 μL/well. Following brief mixing, Viafect transfection reagent (Promega) diluted 16-fold into Opti-MEM was dispensed into the plates at 40 μL/well. After mixing by pipetting, plates were incubated for 10 min on the pipetting station deck. The DNA-transfection reagent complexes were then added to plates containing cells. To facilitate the screen, 10 μL of DNA-transfection reagent complexes were added in duplicates to the top 4 and bottom 4 rows, resulting in two identical 48-well arrays per plate. Plates with transfected cells were incubated for 18–20 h at 37 °C/5% CO2. A screen of each tracer across the entire library using two different concentrations requires duplicate plates of transfected cells. Depending on the number of tracers being screened, transfections can be scaled up using the same ratios. The next day, for each tracer, four 20× screening solutions in tracer dilution buffer (Promega) were prepared: two duplicates at final concentration of 20 μM and two duplicates at a final concentration of 2 μM. A competing unmodified compound was added to one of each duplicate at a final concentration of 400 μM. The four resulting solutions were diluted 4-fold in Opti-MEM without serum or phenol red to generate 5× solutions (5 µM and 0.5 µM tracer +/− 100 μM competing compound). To screen the library, a BioTek MultiFlo FX liquid dispenser was used to dispense 22.5 µL of tracer solution to the top 4 rows and 22.5 µL tracer + competing compound solution to the 4 bottom rows. Plates were briefly mixed on an orbital shaker and incubated for 1.5 h at room temperature. […]

HCRTR1 = target: T2, HCRTR1 (Homo sapiens, UniProt O43613); assay: NanoBRET screen HiBiT-HCRTR1 in HEK293
T2 construct: purchased Promega (in-house HiBiT-GPCR construct library, NanoBRET)
T2 sequence (O43613 1-425): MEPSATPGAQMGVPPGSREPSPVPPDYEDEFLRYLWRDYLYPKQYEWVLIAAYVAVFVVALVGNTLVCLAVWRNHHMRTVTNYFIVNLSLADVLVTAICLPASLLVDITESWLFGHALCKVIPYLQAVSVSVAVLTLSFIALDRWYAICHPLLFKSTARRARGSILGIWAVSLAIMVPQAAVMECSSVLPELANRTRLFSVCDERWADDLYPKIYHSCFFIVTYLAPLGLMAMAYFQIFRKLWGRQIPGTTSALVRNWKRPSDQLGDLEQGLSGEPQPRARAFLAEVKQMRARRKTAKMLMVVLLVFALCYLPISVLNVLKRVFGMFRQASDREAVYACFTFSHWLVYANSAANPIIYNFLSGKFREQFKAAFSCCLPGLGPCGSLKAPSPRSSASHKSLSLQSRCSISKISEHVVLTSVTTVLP
Protocol: as §1, §2

BRS3 = target: T3, BRS3 (Homo sapiens, UniProt P32247); assay: NanoBRET screen HiBiT-BRS3 in HEK293
T3 construct: purchased Promega (in-house HiBiT-GPCR construct library, NanoBRET)
T3 sequence (P32247 1-399): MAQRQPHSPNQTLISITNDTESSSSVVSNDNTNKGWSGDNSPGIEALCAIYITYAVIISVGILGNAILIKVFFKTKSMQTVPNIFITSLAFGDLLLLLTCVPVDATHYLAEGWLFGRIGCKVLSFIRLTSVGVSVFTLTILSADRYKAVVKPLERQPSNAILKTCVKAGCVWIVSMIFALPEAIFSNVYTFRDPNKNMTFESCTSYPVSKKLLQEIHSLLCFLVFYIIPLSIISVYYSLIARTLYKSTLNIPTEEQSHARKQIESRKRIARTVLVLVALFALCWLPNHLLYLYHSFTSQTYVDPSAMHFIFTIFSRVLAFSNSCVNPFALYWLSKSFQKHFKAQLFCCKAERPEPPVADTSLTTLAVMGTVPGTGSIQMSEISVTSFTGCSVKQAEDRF
Protocol: as §1, §2

[1] = tracer at 0.1μM, listed as amitriptyline-b-2-NB590
[2] = tracer at 1μM, listed as amitriptyline-b-2-NB590

Compound: CN(C)CCC=C1c2ccccc2CCc2ccc(C(=O)NCCNC(=O)CCOCCOCCOCCOCCNC(=O)CCc3ccc4n3[B-](F)(F)[N+]3=C(c5ccc[nH]5)C=CC3=C4)cc21 [Amitriptyline-a-2-NB590]
NanoBRET Fold Response (VIPR2; tracer at 0.1μM): 0.95
NanoBRET Fold Response (VIPR2; tracer at 1μM): 1.02
NanoBRET Fold Response (HCRTR1; tracer at 0.1μM): 1.00
NanoBRET Fold Response (HCRTR1; tracer at 1μM): 1.00
NanoBRET Fold Response (BRS3; tracer at 0.1μM): 1.02
NanoBRET Fold Response (BRS3; tracer at 1μM): 0.99

Compound: CN(C)CCC=C1c2ccccc2CCc2ccc(C(=O)NCCNC(=O)CCOCCOCCOCCOCCNC(=O)CCc3ccc4n3[B-](F)(F)[N+]3=C(c5ccc[nH]5)C=CC3=C4)cc21 [Amitriptyline-b-2-NB590]
NanoBRET Fold Response (VIPR2; [1]): 1.31
NanoBRET Fold Response (VIPR2; [2]): 1.31
NanoBRET Fold Response (HCRTR1; [1]): 1.08
NanoBRET Fold Response (HCRTR1; [2]): 0.91
NanoBRET Fold Response (BRS3; tracer at 0.1μM): 0.92
NanoBRET Fold Response (BRS3; [2]): 1.07

Compound: CN(CCC=C1c2ccccc2CCc2ccccc21)C(=O)CCOCCOCCOCCOCCNC(=O)CCc1ccc2n1[B-](F)(F)[N+]1=C(c3ccc[nH]3)C=CC1=C2 [Amitriptyline-e-2-NB590]
NanoBRET Fold Response (VIPR2; tracer at 1μM): 1.06

More lines, now with the values ahead:

NanoBRET Fold Response (VIPR2; VIPR2, 0.1μM): 1.19
NanoBRET Fold Response (VIPR2; VIPR2, 1μM): 1.15
NanoBRET Fold Response (HCRTR1; HCRTR1, 0.1μM): 1.00
NanoBRET Fold Response (HCRTR1; HCRTR1, 1μM): 1.09
NanoBRET Fold Response (BRS3; BRS3, 0.1μM): 1.10
NanoBRET Fold Response (BRS3; BRS3, 1μM): 1.02
Compound: CCOC(=O)c1cc(C#N)c(N2CCC(C(=O)NS(=O)(=O)Cc3ccccc3/C=C/C(=O)NCCNC(=O)CCc3ccc4n3[B-](F)(F)[N+]3=C(c5ccc[nH]5)C=CC3=C4)CC2)nc1C [AZD1283-1-NB590]

NanoBRET Fold Response (VIPR2; VIPR2, tracer 0.1μM): 1.01
NanoBRET Fold Response (VIPR2; VIPR2, tracer 1μM): 1.08
NanoBRET Fold Response (HCRTR1; HCRTR1, tracer 0.1μM): 0.98
NanoBRET Fold Response (HCRTR1; HCRTR1, tracer 1μM): 0.95
NanoBRET Fold Response (BRS3; BRS3, tracer 0.1μM): 1.02
NanoBRET Fold Response (BRS3; BRS3, tracer 1μM): 1.00
Compound: N#CN=C(NCCCOc1cccc(CN2CCCCC2)c1)NCCNC(=O)CCOCCOCCOCCOCCNC(=O)CCc1ccc2n1[B-](F)(F)[N+]1=C(c3ccc[nH]3)C=CC1=C2 [Aminopotentidine-2-NB590]

NanoBRET Fold Response (VIPR2; 0.1μM tracer): 0.99
NanoBRET Fold Response (VIPR2; 1μM tracer): 0.99
NanoBRET Fold Response (HCRTR1; 0.1μM tracer): 0.93
NanoBRET Fold Response (HCRTR1; 1μM tracer): 0.84
NanoBRET Fold Response (BRS3; 0.1μM tracer): 0.95
NanoBRET Fold Response (BRS3; 1μM tracer): 0.95
Compound: COc1ccc2c(n1)c(CCNC(C)=O)cn2CCNC(=O)CCc1ccc2n1[B-](F)(F)[N+]1=C(c3ccc[nH]3)C=CC1=C2 [Azamelatonin-1-NB590]
